Test results: PMC8424629, “Chemical “Butterfly Effect” Explaining the Coordination Chemistry and Antimicrobial Properties of Clavanin Complexes” (Inorganic Chemistry, 2021)
Read-outs that look alike come from different tables or passages of the source. Where no end group is shown, it is not given here.

Legend:
[1] = system: Staphylococcus spp. (for S. aureus); parameters: method as in earlier work; conditions: EUCAST/2021/01/01, ref 22 (SI), cited from earlier work
[2] = system: Enterococcus spp. (for E. faecalis); parameters: method as in earlier work; conditions: EUCAST/2021/01/01, ref 22 (SI), cited from earlier work
[3] = system: Enterobacterales (for E. coli); parameters: method as in earlier work; conditions: EUCAST/2021/01/01, ref 22 (SI), cited from earlier work; for MIC breakpoints R>: resistant breakpoint; for MIC breakpoints S≤: susceptible breakpoint
[4] = system: Candida albicans ATCC 10231; conditions: ATCC 10231, 24 h
[5] = type: binding; conditions: for log β ZnH2L / log β ZnH3L / log β ZnHL / log β ZnL / log β ZnH4L: Zn(II):L 1:1, 0.5 mM
Protocol: (§1) All peptides ([…]-COOH, […]-COOH, […]
(§2) were purchased from KareBay Biochem (USA) (certified purity: 98 %) and were used as received.
(§3) The carbonate-free stock solutions of 0.1 M NaOH were purchased from Sigma-Aldrich and then potentiometrically standardized with the primary standard potassium hydrogen phthalate (99.9 % purity). […]
(§4) Stability constants for proton, Zn(II) and Cu(II) complexes were calculated from pH -metric titration curves carried out over the pH range 2-11 at T = 298 K in water solution of 4 mM HClO 4 and ionic strength 40 mM (SDS), using a total volume of 3 ml. The potentiometric titrations were performed using a Metrohm Titrando 905 titrator and a Mettler Toledo InLab Micro comb ined pH electrode. The thermostabilized glass -cell was equipped with a magnetic stirring system, a microburette delivery tube and an inlet –outlet tube for argon.
(§5) Solutions were titrated with 0.1 M carbonate-free NaOH. The electrodes were calibrated daily f or hydrogen ion concentration by titrating HClO 4 with NaOH under the same experimental conditions as above. The purities and the exact concentrations of the ligand solutions were determined by the Gran method. 1 The ligand concentration was 0.5 mM. The Zn(II) and Cu(II) to ligand ratio was 1 : 1.
(§6) The standard potential and the slope of the electrode couple were computed by means of Glee 2 program. The HYPERQUAD 20063 program was used for the stability constant calculations. The standard deviations were computed by HYPERQUAD 2006 and refer to random errors only. The constants for the hydrolytic Zn(II ) species

[6] = type: physicochemical; conditions: for log β H2L / log β H3L / log β H4L / log β H5L / log β H6L / log β HL: potentiometry pH 2-11, 298 K, 4 mM HClO4, I = 40 mM SDS, ligand 0.5 mM, SD in parentheses
Protocol: as §1, §2, §3, §4, §5, §6

E. coli = conditions: literature describes C-amidated clavanins, cited from earlier work
Excerpt: During the over 20-year study on clavanins (mainly clavanin A), various modes of action were proposed.[15],[18],[19] […] The second is observed at acidic pH (5.5) when clavanin A binds to DNA and disrupts DNA synthesis, similarly to indolicidin.[20] The third mechanism, which also occurs at pH 5.5, is assigned not to the “single” clavanin A but to its Zn(II) complex, which cleav ...

[7] = system: Enterococcus faecalis ATCC 29212; conditions: ATCC 29212, 24 h
[8] = potentiometry, 298 K, I = 40 mM SDS, Cu(II):L 1:1, 0.5 mM, SD in parentheses
[9] = potentiometry, 298 K, I = 40 mM SDS, SD in parentheses

O=C1CN(/N=C/c2ccc([N+](=O)[O-])o2)C(=O)N1 [Nitrofurantoin]
MIC breakpoints R> ([1]; resistant breakpoint): > 64 µg/mL
MIC breakpoints S≤ ([1]; susceptible breakpoint): ≤ 64 µg/mL
MIC breakpoints R> ([2]; resistant breakpoint): > 64 µg/mL
MIC breakpoints S≤ ([2]; susceptible breakpoint): ≤ 64 µg/mL
MIC breakpoints R> [3]: > 64 µg/mL
MIC breakpoints S≤ [3]: ≤ 64 µg/mL

O=[N+]([O-])c1ccc(O)c2ncccc12 [Nitroxoline]
MIC breakpoints R> [3]: > 16 µg/mL
MIC breakpoints S≤ [3]: ≤ 16 µg/mL

CCN1CCN(C(=O)N[C@@H](C(=O)N[C@@H]2C(=O)N3[C@@H]2SC(C)(C)[C@@H]3C(=O)O)c2ccccc2)C(=O)C1=O [Piperacillin]
MIC breakpoints R> [3]: > 8 µg/mL
MIC breakpoints S≤ [3]: ≤ 8 µg/mL

CC1(C)S[C@@H]2[C@H](NC(=O)[C@H](C(=O)O)c3ccsc3)C(=O)N2[C@H]1C(=O)O [Ticarcillin]
MIC breakpoints R> [3]: > 16 µg/mL
MIC breakpoints S≤ [3]: ≤ 8 µg/mL

H-LFKLLGKIIHHVGNFVHGFSHVF-OH [Clavanin E]
MIC [4]: 32 µg/mL
pKa, line CuH2L [5]: 6.90
pKa, line CuH3L [5]: 5.96
pKa, line CuH4L [5]: 5.16
pKa, line CuH-1L [5]: 8.78
pKa, line CuH-2L [5]: 10.05
pKa, line CuH-3L [5]: 10.37
pKa, line CuHL [5]: 7.72
pKa, line CuL [5]: 8.81
pKa, line ZnH2L [5]: 7.18
pKa, line ZnHL [5]: 8.62
pKa, line ZnL [5]: 9.77
log β CuH2L [5, 8]: 29.52 (3)
log β CuH3L [5, 8]: 36.42 (3)
log β CuH4L [5, 8]: 42.38 (2)
log β CuH5L [5, 8]: 47.54 (3)
log β CuH-1L [5, 8]: 4.21 (4)
log β CuH-2L [5, 8]: -5.84 (4)
log β CuH-3L [5, 8]: -16.21 (5)
log β CuHL [5, 8]: 21.80 (3)
log β CuL [5, 8]: 12.99 (4)
log β ZnH2L [5, 9]: 25.12 (5)
log β ZnH3L [5, 9]: 32.30 (11)
log β ZnHL [5, 9]: 16.50 (6)
log β ZnL [5, 9]: 6.73
pKa, species H2L [6]: 9.19
pKa, species H3L [6]: 8.29
pKa, species H4L [6]: 7.82
pKa, species H5L [6]: 7.30
pKa, species H6L [6]: 5.55
pKa, species HL [6]: 10.77
log β H2L [6]: 19.96 (3)
log β H3L [6]: 28.25 (3)
log β H4L [6]: 36.07 (3)
log β H5L [6]: 43.37 (3)
log β H6L [6]: 48.92 (4)
log β HL [6]: 10.77 (2)

H-VFQFLGKIIHHVGNFVHGFSHVF-OH [Clavanin A]
minimum inhibitory concentration (MIC) (E. coli; pH 5.5, with addition of Zn(II) ions): 4 µM
minimum inhibitory concentration (MIC) (E. coli; pH 5.5, without Zn(II)): 64 µM
MIC [4]: 128 µg/mL
pKa, line CuH2L [5]: 6.82
pKa, line CuH3L [5]: 6.01
pKa, line CuH-1L [5]: 8.82
pKa, line CuH-2L [5]: 9.76
pKa, line CuH-3L [5]: 10.16
pKa, line CuHL [5]: 7.56
pKa, line CuL [5]: 8.36
pKa, line ZnH2L [5]: 7.15
pKa, line ZnH3L [5]: 6.59
pKa, line ZnHL [5]: 8.53
pKa, line ZnL [5]: 9.36
log β CuH2L [5, 8]: 27.53 (3)
log β CuH3L [5, 8]: 34.35 (2)
log β CuH4L [5, 8]: 40.36 (2)
log β CuH-1L [5, 8]: 2.79 (3)
log β CuH-2L [5, 8]: -6.97 (3)
log β CuH-3L [5, 8]: -17.13 (3)
log β CuHL [5, 8]: 19.97 (3)
log β CuL [5, 8]: 11.61 (3)
log β ZnH2L [5, 9]: 23.99 (2)
log β ZnH3L [5, 9]: 31.14 (3)
log β ZnH4L [5, 9]: 37.74 (12)
log β ZnHL [5, 9]: 15.46 (2)
log β ZnL [5, 9]: 6.10 (7)
pKa, species H2L [6]: 8.88
pKa, species H3L [6]: 8.09
pKa, species H4L [6]: 7.63
pKa, species H5L [6]: 6.92
pKa, species H6L [6]: 5.32
pKa, species HL [6]: 10.18
log β H2L [6]: 19.06 (6)
log β H3L [6]: 27.15 (8)
log β H4L [6]: 34.78 (7)
log β H5L [6]: 41.7 (8)
log β H6L [6]: 47.02 (10)
log β HL [6]: 10.18 (6)
MIC [7]: 256 µg/mL

H-VFQFLGRIIHHVGNFVHGFSHVF-OH [Clavanin B]
log β CuH2L [5, 8]: 28.72 (3)
log β CuH3L [5, 8]: 35.57 (2)
log β CuH4L [5, 8]: 41.57 (3)
log β CuH-1L [5, 8]: 2.96 (3)
log β CuH-2L [5, 8]: -7.17 (3)
log β CuH-3L [5, 8]: -18.46 (4)
log β CuHL [5, 8]: 21.00 (3)
log β CuL [5, 8]: 12.37 (3)
log β ZnH2L [5, 9]: 25.24 (2)
log β ZnH3L [5, 9]: 32.61 (2)
log β ZnH4L [5, 9]: 39.23 (7)
log β ZnHL [5, 9]: 16.85 (1)
log β ZnL [5, 9]: 6.53 (7)
log β H2L [6]: 20.21 (2)
log β H3L [6]: 28.47 (2)
log β H4L [6]: 36.26 (2)
log β H5L [6]: 43.35 (2)
log β H6L [6]: 48.47 (2)
log β HL [6]: 11.17 (1)

VFQFLGRIIHHVGNFVHGFSHVF [Clavanin B]
pKa, line CuH2L [5]: 6.86
pKa, line CuH3L [5]: 5.99
pKa, line CuH-1L [5]: 9.40
pKa, line CuH-2L [5]: 10.14
pKa, line CuH-3L [5]: 11.28
pKa, line CuHL [5]: 7.71
pKa, line CuL [5]: 8.64
pKa, line ZnH2L [5]: 7.37
pKa, line ZnH3L [5]: 6.62
pKa, line ZnHL [5]: 8.39
pKa, line ZnL [5]: 10.32
pKa, species H2L [6]: 9.04
pKa, species H3L [6]: 8.26
pKa, species H4L [6]: 7.79
pKa, species H5L [6]: 7.09
pKa, species H6L [6]: 5.12
pKa, species HL [6]: 11.17
